Patent US12123048B2, “Fluorinated 4′-alkylumbelliferyl a-D-glucopyranosides, biological sterilization indicators including the same and methods of using the same” (3M INNOVATIVE PROPERTIES COMPANY, priority 2018, dated 2024)

Assay: Measurement of enzyme substrate degradation (100° C. for 15 minutes) by fluorescence
Assay type: physicochemical
Details: no spores, read at 60° C.
Method: Luria-Bertani (LB) broth was prepared by dissolving tryptone (10 g/L), yeast extract (5 g/L), and NaCl (5 g/L) in deionized water. In the examples, 6′-fluoro-4′-methylumbelliferyl α-D-glucopyranoside (0.3 mg/mL) or 5′-fluoro-4′-methylumbelliferyl α-D-glucopyranoside (0.3 mg/mL) was added to the broth. In the comparative examples, 4′-methylumbelliferyl α-D-glucopyranoside (MUG) (0.3 mg/mL) or 6′,8′-Difluoro-4′-methylumbelliferyl α-D-glucopyranoside (0.3 mg/mL) was added to the broth. The pH of the broth was adjusted to either pH 6, pH 7, pH 8, or pH 9 using 0.1 N hydrochloric acid or 1N sodium hydroxide solutions. The broth was passed through a 0.22 micron filter prior to use.
(§1) An 800-microliter sample of LB broth (pH 6) containing 6′-fluoro-4′-methylumbelliferyl α-D-glucopyranoside (0.3 mg/mL) (enzyme substrate of Example 1) was added to a 1.5 mL microcentrifuge tube and the capped tube was placed in a heating block at 100° C. for 15 minutes. A metal block was placed on top of the tube to keep the cap sealed during heating. The sample was cooled to ambient temperature and then added to two wells (100 microliters per well) of a black 96-well microtiter plate with optically clear, flat bottom wells (NUNC #165301, Thermo Fisher Scientific). The top of the plate was covered with an optically clear sealing film (product #4311971, Applied Biosystems Corporation). The plate was warmed at 60° C. and shaken in a linear direction. Fluorescence readings (360 nm excitation/450 nm emission at 50% gain) were taken from the bottom of the plate. A reading was taken at an initial time point of 10 seconds and then at +1 minute intervals thereafter. A Synergy Neo2 fluorescence plate reader (BioTek Company) was used. In Table 5, the mean fluorescence values detected (RFU) at times of 10 seconds, +5 minutes, +10 minutes, and +30 minutes are reported.
as §1, with “7)” for “6)”, “6,” for “5,”
as §1, with “8)” for “6)”, “A Synergy Neo2 fluorescence plate reader (BioTek Company) was used. In Table 5, the mean fluorescence values detected (RFU) at times of 10 seconds, +5 minutes, +10 minutes, and +30 minutes are reported.” left out

Row | SMILES | MEASURED FLUORESCENCE, RFU 10 sec (pH 6 LB broth) | MEASURED FLUORESCENCE, RFU +5 min (pH 6 LB broth) | MEASURED FLUORESCENCE, RFU +10 min (pH 6 LB broth) | MEASURED FLUORESCENCE, RFU +30 min (pH 6 LB broth) | MEASURED FLUORESCENCE, RFU 10 sec (pH 7 LB broth) | MEASURED FLUORESCENCE, RFU +5 min (pH 7 LB broth) | MEASURED FLUORESCENCE, RFU +10 min (pH 7 LB broth) | MEASURED FLUORESCENCE, RFU +30 min (pH 7 LB broth) | MEASURED FLUORESCENCE, RFU 10 sec (pH 8 LB broth) | MEASURED FLUORESCENCE, RFU +5 min (pH 8 LB broth) | MEASURED FLUORESCENCE, RFU +10 min (pH 8 LB broth) | MEASURED FLUORESCENCE, RFU +30 min (pH 8 LB broth) | MEASURED FLUORESCENCE, RFU 10 sec (pH 9 LB broth) | MEASURED FLUORESCENCE, RFU +5 min (pH 9 LB broth) | MEASURED FLUORESCENCE, RFU +10 min (pH 9 LB broth) | MEASURED FLUORESCENCE, RFU +30 min (pH 9 LB broth)
1 | Cc1cc(=O)oc2c(F)c(O[C@H]3O[C@H](CO)[C@@H](O)[C@H](O)[C@H]3O)c(F)cc12 [Comparative Example A, 6′,8′-Difluoro-4′-methylumbelliferyl α-D-glucopyranoside] | 10,605 RFU | 10,851 RFU | 10,748 RFU | 10,663 RFU | 12986 RFU | 13409 RFU | 13403 RFU | 13283 RFU | 14015 RFU | 14483 RFU | 14494 RFU | 14331 RFU | 18584 RFU | 19052 RFU | 18990 RFU | 18683 RFU
2 | Cc1cc(=O)oc2cc(O[C@H]3O[C@H](CO)[C@@H](O)[C@H](O)[C@H]3O)c(F)cc12 [Example 1, 6′-Fluoro-4′-methylumbelliferyl α-D-glucopyranoside] | 1108 RFU | 1096 RFU | 1040 RFU | 948 RFU | 1209 RFU | 1183 RFU | 1130 RFU | 1037 RFU | 1145 RFU | 1130 RFU | 1092 RFU | 1026 RFU | 1449 RFU | 1437 RFU | 1388 RFU | 1330 RFU
3 | Cc1cc(=O)oc2cc(O[C@H]3O[C@H](CO)[C@@H](O)[C@H](O)[C@H]3O)cc(F)c12 [Example 2, 5′-Fluoro-4′-methylumbelliferyl α-D-glucopyranoside] | 933 RFU | 852 RFU | 805 RFU | 758 RFU | 831 RFU | 777 RFU | 733 RFU | 673 RFU | 748 RFU | 705 RFU | 658 RFU | 579 RFU | 675 RFU | 625 RFU | 584 RFU | 530 RFU
4 | Cc1cc(=O)oc2cc(O[C@H]3O[C@H](CO)[C@@H](O)[C@H](O)[C@H]3O)ccc12 [MUG, 4′-methylumbelliferyl-α-D-glucopyranoside] | 967 RFU | 909 RFU | 852 RFU | 782 RFU | 823 RFU | 790 RFU | 745 RFU | 670 RFU | 714 RFU | 685 RFU | 643 RFU | 567 RFU | 654 RFU | 622 RFU | 575 RFU | 500 RFU
